The results in this text go back to the NIST ThermoML archive (doi:10.1021/je101151f).

± gives the expanded uncertainty stated by the source.

The conditions of this data set: Liquid; Manometric method.
For the compound `Cc1ccc(C(C)C)cc1` [1-(1-methylethyl)-4-methylbenzene], the Normal boiling temperature is 176.24 ± 0.31 °C. As to `C=C(C)[C@@H]1CC=C(C)CC1` [(S)-1-methyl-4-(1-methylethenyl)cyclohexene], the Normal boiling temperature came out at 177.19 ± 0.36 °C.

Turning to `C=C1CCC2CC1C2(C)C` (stereo not drawn) [β-pinene], the Normal boiling temperature amounted to 165.80 ± 0.31 °C.
